Data as given in patent US20060074035A1, “Dinucleotide inhibitors of de novo RNA polymerases for treatment or prevention of viral infections” (priority 2002, published 2006).

How the values were obtained:
Type in all cases: biochemical
[1] = molecular target: T1, HCV polymerase (Hepatitis C virus genotype 1a, UniProt P27958); experiment: GpC dinucleotide-primed RNA synthesis
T1 construct: a particularly preferred RNA polymerases is the HCV NS5B polypeptide
Excerpt: (§1) It was also observed that certain dinucleotide analogues were able to inhibit dinucleotide-primed RNA synthesis. […] Furthermore, this inhibitory activity is sequence specific. When a different dinucleotide primer (GpG) was used to prime RNA synthesis from the. […] These observations further support the model that base pairing capability between the dinucleotide compound and the template terminal bases is important for achieving sufficient inhibition of HCV polymerase.

[2] = molecular target: T1, HCV polymerase; experiment: HCV NS5B de novo initiation assay, ATP as initiation nucleotide
Procedure: (§2) In vitro RNA-dependent RNA polymerase assay was used to evaluate activity of dinucleotide compounds as inhibitors of HCV polymerase. Examples of such compounds are illustrated below as compounds A and B in.
To further determine whether this inhibitory effect of HCV polymerase is specific for a particular initiation nucleotide, de novo initiation assay was performed using ATP as the initiation nucleotide (template RNA: 5′ AAAAAAAAGU 3′).

[3] = molecular target: T1, HCV polymerase; experiment: GpG dinucleotide-primed RNA synthesis; details: dinucleotide primer GpG; RNA template 5′ AAAAAAAACC 3′; FIG. 4
Excerpt: as §1

[4] = molecular target: T2, HCV NS5B (Hepatitis C virus genotype 1a, UniProt P27958); experiment: HCV NS5B de novo initiation assay, GTP as initiation nucleotide
T2 construct: a particularly preferred RNA polymerases is the HCV NS5B polypeptide
Excerpt: as §2

T1 sequence (P27958 2421-3011): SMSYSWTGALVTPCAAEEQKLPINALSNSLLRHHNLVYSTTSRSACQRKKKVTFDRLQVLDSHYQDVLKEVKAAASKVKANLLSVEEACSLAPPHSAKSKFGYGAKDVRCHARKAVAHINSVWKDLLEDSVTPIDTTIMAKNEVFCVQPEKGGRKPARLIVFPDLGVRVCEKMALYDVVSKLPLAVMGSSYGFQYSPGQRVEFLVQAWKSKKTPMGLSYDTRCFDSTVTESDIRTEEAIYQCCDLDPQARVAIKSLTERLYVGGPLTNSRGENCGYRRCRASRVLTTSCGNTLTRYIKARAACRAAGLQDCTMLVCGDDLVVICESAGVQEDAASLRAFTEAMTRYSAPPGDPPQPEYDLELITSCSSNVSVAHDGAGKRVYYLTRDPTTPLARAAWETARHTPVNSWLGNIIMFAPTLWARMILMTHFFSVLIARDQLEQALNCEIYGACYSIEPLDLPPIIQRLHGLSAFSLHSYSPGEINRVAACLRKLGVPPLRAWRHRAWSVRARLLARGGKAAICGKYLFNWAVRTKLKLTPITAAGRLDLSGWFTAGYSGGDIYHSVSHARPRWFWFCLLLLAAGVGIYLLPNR
T2 sequence (P27958 2421-3011): as above

Structure (SMILES) | IC50 [1] | IC50 [2] | inhibition of polymerase activity (GpG-primed RNA synthesis) [3] | IC50 [4]
COC1C(OP(O)(=S)OCC2CC(O)C(n3ccc(N)nc3=O)O2)C(COP(=O)(O)O)OC1n1cnc2c(=O)[nH]c(N)nc21 (stereo not shown) [compound A] | 50 µM | ~90 µM | lost the ability to inhibit the polymerase activity | 20 µM
COC1[C@@H](COP(O)(=S)OC2[C@@H](COP(=O)(O)O)O[C@@H](n3cnc4c(=O)[nH]c(N)nc43)[C@H]2OC)O[C@@H](n2ccc(N)nc2=O)[C@H]1O (stereo partly shown) [compound B] | ~80 µM | – | lost the ability to inhibit the polymerase activity | 65 µM
